Experimental data from patent US7648972B2, “2-methylene-1α-hydroxy-19,21-dinorvitamin D3 analogs and uses thereof” (Wisconsin Alumni Research Foundation, priority 2006, dated 2010).
“Also recorded” adds a separate entry of the source.

Columns and labels:
[1] = molecular target: T1, full-length recombinant rat vitamin D receptor (Rattus norvegicus, UniProt P13053); test: Vitamin D receptor binding (competition with [3H]-1,25-(OH)2-D3)
T1 construct: Full-length recombinant rat receptor was expressed in E. coli BL21 (DE3) Codon Plus RIL cells; histidine tag (C); made in house; host or cells: E. coli BL21 (DE3) Codon Plus RIL
T1 sequence (P13053 1-423): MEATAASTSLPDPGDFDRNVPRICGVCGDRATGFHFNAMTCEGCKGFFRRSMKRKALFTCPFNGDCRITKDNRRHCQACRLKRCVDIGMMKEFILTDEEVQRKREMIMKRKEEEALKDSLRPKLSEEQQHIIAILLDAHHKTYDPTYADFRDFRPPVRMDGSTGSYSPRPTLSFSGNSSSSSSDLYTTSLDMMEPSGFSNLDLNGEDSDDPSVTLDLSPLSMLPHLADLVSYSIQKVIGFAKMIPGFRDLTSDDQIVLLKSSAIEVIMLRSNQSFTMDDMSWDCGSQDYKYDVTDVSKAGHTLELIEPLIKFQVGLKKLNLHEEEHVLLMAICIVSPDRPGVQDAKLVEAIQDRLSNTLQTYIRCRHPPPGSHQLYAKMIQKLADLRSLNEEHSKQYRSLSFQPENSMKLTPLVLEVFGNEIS
Description: Full-length recombinant rat receptor was expressed in E. coli BL21 (DE3) Codon Plus RIL cells and purified to homogeneity using two different column chromatography systems. The first system was a nickel affinity resin that utilizes the C-terminal histidine tag on this protein. The protein that was eluted from this resin was further purified using ion exchange chromatography (S-Sepharose Fast Flow). Aliquots of the purified protein were quick frozen in liquid nitrogen and stored at −80° C. until use. For use in binding assays, the protein was diluted in TEDK50 (50 mM Tris, 1.5 mM EDTA, pH7.4, 5 mM DTT, 150 mM KCl) with 0.1% Chaps detergent. The receptor protein and ligand concentration was optimized such that no more than 20% of the added radiolabeled ligand was bound to the receptor.
Radiolabeled ligand (^3H-1,25(OH)2D3, ˜159 Ci/mmole) was added in ethanol at a final concentration of 1 nM.
Radiolabeled and unlabeled ligands were added to 100 mcl of the diluted protein at a final ethanol concentration of <10%, mixed and incubated overnight on ice to reach binding equilibrium. The following day, 100 mcl of hydroxylapatite slurry (50%) was added to each tube and mixed at 10-minute intervals for 30 minutes. […] Total binding was determined from the tubes containing only radiolabeled ligand.

[2] = tested on: HL-60 cells; test: HL-60 differentiation (nitro blue tetrazolium reduction); assay type: cell-based, human; conditions: FIG. 4
Description: The study drugs were dissolved in ethanol and the concentrations determined using UV spectrophotometry. Serial dilutions were prepared so that a range of drug concentrations could be tested without changing the final concentration of ethanol (<0.2%) present in the cell cultures.
Human promyelocytic leukemia (HL60) cells were grown in RPMI-1640 medium containing 10% fetal bovine serum. The cells were incubated at 37° C. in the presence of 5% CO2.
HL60 cells were plated at 1.2×10^5 cells/ml. Eighteen hours after plating, cells in duplicate were treated with drug. Four days later, the cells were harvested and a nitro blue tetrazolium reduction assay was performed (Collins et al., 1979; J. Exp. Med. 149:969-974). The percentage of differentiated cells was determined by counting a total of 200 cells and recording the number that contained intracellular black-blue formazan deposits. Verification of differentiation to monocytic cells was determined by measuring phagocytic activity (data not shown).

[3] = tested on: 24-hydyroxylase (24Ohase) gene promoter luciferase reporter in ROS 17/2.8 (bone) cells; test: In vitro transcription assay (24-hydroxylase promoter luciferase reporter); assay type: cell-based; conditions: Ros17/2.8 (bone) cells
Description: Transcription activity was measured in ROS 17/2.8 (bone) cells that were stably transfected with a 24-hydyroxylase (24Ohase) gene promoter upstream of a luciferase reporter gene (Arbour et al., 1998). Cells were given a range of doses. Sixteen hours after dosing the cells were harvested and luciferase activities were measured using a luminometer. (RLU=relative luciferase units)

[4] = tested on: Male, weanling Sprague-Dawley rats; test: Intestinal calcium transport (everted gut sac method); assay type: in vivo, rat; conditions: four consecutive ip doses, FIG. 3
Excerpt: (§1) Male, weanling Sprague-Dawley rats were placed on Diet 11 (Suda et al., Purified Rodent Diet-Diet 11, containing 0.47% and 0.3% phosphorus and fat soluble vitamins A, D, E and K are provided ad libitum)(0.47% Ca) diet+AEK for one week followed by Diet 11 (0.02% Ca)+AEK for 3 weeks. The rats were then switched to a diet containing 0.47% Ca for one week followed by two weeks on a diet containing 0.02% Ca. Dose administration began during the last week on 0.02% calcium diet. Four consecutive ip doses were given approximately 24 hours apart. Twenty-four hours after the last dose, blood was collected from the severed neck and the concentration of serum calcium determined as a measure of bone calcium mobilization. The first 10 cm of the intestine was also collected for intestinal calcium transport analysis using the everted gut sac method. The everted gut sac assay was carried out as previously described by Martin and Deluca, Am. J. Physiol. 216, 1351 (1969); (DeLuca et al., U.S. Pat. No. 4,188,345), which are incorporated by reference as if fully set forth herein.
The negative control material is prepared by volumetrically measuring ethanol (<5%) and propylene glycol, mixing, and then placing in storage at 2 to 8° C.
The solution is mixed and then stored at 2 to 8° C. […]

[5] = tested on: Male, weanling Sprague-Dawley rats; test: Bone calcium mobilization (serum calcium); assay type: in vivo, rat; conditions: four consecutive ip doses, FIG. 2
Excerpt: as §1, with “herein. […]” for “herein.”
Twenty-four hours after the final dose, approximately 1 ml of blood is collected from the tail artery of each experimental animal. […] The level of calcium is determined by diluting the serum into 0.1% lanthum chloride and measuring the absorbance on an atomic absorption spectrophotometer (Perkin Elmer Model 3110, Shelton, Conn.).

C=C1[C@H](O)CC(=C/C=C2\CCC[C@]3(C)[C@@H](CCCCC(C)C)CC[C@@H]23)C[C@H]1O [SY-44, 2-methylene-1α-hydroxy-19,21-dinorvitamin D3]
binding to the recombinant vitamin D receptor, times less active when compared to 1α,25-dihydroxyvitamin D3 ([1]; competition with [3H]-1,25-(OH)2-D3, relative to 1α,25-dihydroxyvitamin D3, FIG. 1): 10 times | binding to vitamin D receptors (in words) ([1]; summary statement): high binding to vitamin D receptors | activity in inducing differentiation of HL-60 cells compared with 1α,25-dihydroxyvitamin D3 [2]: slightly less active; also recorded: capability to induce differentiation of HL-60 cells | stimulating transcription of a reporter gene, times less active than 1α,25-dihydroxyvitamin D3 ([3]; stably transfected reporter, FIG. 5): 10 times | stimulation of transcription of reporter gene (in words) ([3]; summary statement): capability to stimulate transcription of reporter gene | intestinal calcium transport activity compared with 1α,25-dihydroxyvitamin D3 [4]: higher intestinal calcium transport activity; also recorded: high intestinal calcium transport activity | bone calcium mobilization activity compared with 1α,25-dihydroxyvitamin D3 [5]: less bone calcium mobilization activity; also recorded: low ability to mobilize calcium from bone
